According to patent publication US20080118437A1, “Diagnosis and treatment O prostate cancer” (Regents of the University of Michigan, priority 2006, published 2008):

Tests used:
PC-3Luc cells [1] = experiment: WST-1 proliferation assay with hrCCL2 and anti-CCL2 antibodies; assay type: cell-based, human; conditions: 72 hours, antibodies 30 μg/mL
Description: Cells were seeded at a density of 1×10^5 cells/ml for PC-3Luc cells in a 96 well plate in RPMI+10% FBS (FCS is mentioned in previous section). Twenty-four hours after seeding, media was changed to either serum-free RPMI or RPMI+10% FBS. Cell growth was determined 72 hours later using the WST-1 assay (Pierce Biotech, Inc.) following the manufacturer's instructions.

VCaP cells [2] = experiment: Western blot of MCP-1 induced signaling; assay type: cell-based, human; conditions: MCP-1 100 ng/mL, time dependent, maximal at 30 min; dose-dependent 0.1-100 ng/mL
Description: (§1) Western Blot-Cells were lysed in RIPA buffer (50 mM Tris-HCl, pH 7.4, 1% NP-40, 150 mM NaCl, 1 mM EDTA, 1 mM PMSF, 1 mM Na3VO4, 1 mM NaF, 1 uM okadaic acid and 1 ug/mL aprotinin, leupeptin and pepstatin). Proteins were separated under reducing conditions by SDS-PAGE and transferred onto nitrocellulose membrane. The membranes were blocked with 5% milk in TBST (0.1% Tween in TBS) for 1 hour at room temperature. They were incubated overnight at 4° C. with primary antibodies. Membranes were washed 3 times prior to incubation with HRP-conjugated secondary antibodies (Cell Signaling, Beverly, Mass.) for 1 hour at room temperature. Protein expression was visualized by ECL chemiluminescent (Promega, Madison, Wis.) and quantitated using Image J software (NCl, Bethesda, Md.).

PC-3 cells [3] = experiment: Western blot of MCP-1 induced signaling; assay type: cell-based, human; conditions: MCP-1 100 ng/mL
Description: as §1

VCaP cells [4] = experiment: WST-1 proliferation assay with MCP-1 with or without LY294002; assay type: cell-based, human; conditions: increasing concentrations, 24-96 hours
Description: (§2) Proliferation Assay-Cells were seeded at a density of 4×10^3 cells/well in a six well plate in regular media. Twenty four hours after seeding the media was changed with serum free media with increasing concentrations of MCP-1(1-100 ng/mL) in the presence of absence of LY294002 (1 μM). Cell growth was determined at 24, 48, 72, and 96 hours after seeding using the WST-1 assay (Pierce Biotech) following the manufacturer's instructions.

PC-3 cells [5] = experiment: as above; assay type: cell-based, human; conditions: increasing concentrations, 24-96 hours
Description: as §2

PC-3 cells [6] = experiment: Immunofluorescence of actin rearrangement and lamellipodial formation; assay type: cell-based, human
Description: Immunofluorescence-PC-3 cells were plated on glass coverslips and serum starved for 2 hours prior to stimulation. Cells were stimulated with MCP-1 (100 ng/mL) for 30 min in the presence or absence of identified inhibitors. Stimulation with SDF-1 (200 ng/mL) for 30 min was used as a positive control. Cells were fixed in 3.7% paraformaldehyde, methanol-free for 10 min at room temperature then permeablized with 0.5% Triton X-100 for 5 min at room temperature. Cells were rinsed twice with PBS and incubated for 30 minutes at room temperature with 3% bovine serum albumin (BSA) in PBS+0.05% Tween 20 to prepare cells for staining. Cells were incubated with Phalloidin AlexaFluor S68 (Molecular Probes, Inc.) at a 1:40 dilution in BSA solution to label actin. Cells were washed and mounted on coverslips with Pro-Long Antifade containing DAPI (Molecular Probes, Inc.) following manufacturer's instructions. Immunofluoresence was visualized using a multi-photon laser scanning microscope (MPLSM), consisting of a Mai Tai Broadband Ti:Sapphire laser, tuneable between 710-990 nm and a modified Olympus Fluoview 300 confocal microscope with long working distance water immersion IR objectives. Images were captured with a 60× objective (zoom ×2), 800 nm excitation wavelength, 605 nm and 520 nm centered emmission filters.

LNCaP cells = experiment: WST-1 proliferation assay with MCP-1; assay type: cell-based, human; conditions: compared to vehicle treated controls
Description: as §2

VCaP cells [7] = experiment: Fluorescence-based migration assay toward hrMCP-1; assay type: cell-based, human; conditions: for VCaP cell migration, mean fluoresence±SD: 24 hours
Description: (§3) Flouresence-based Migration Assay—Cell migration was assessed using the Innocyte Cell Migration Assay (Calbiochem, Inc.) following the manufacturer's instructions. Briefly, increasing concentrations of MCP-1 (1-100 ng/mL) in the presence and absence of CCR2 inhibitors or neutralizing antibodies were added to the lower chamber of a 96 well plate. Cells were harvested by 0.5 μM EDTA release and resuspended at 2.5×10^5 cells/mL in serum free media. 2.5×10^4 cells were added to the upper chamber and allowed to migrate through the membrane with 8 μm pores for 24 hours at 37° C. and 5% CO2 atmosphere. Cells that migrated through the membrane were detached and labeled with Calcein AM and fluorescence was measured using fluorescent plate reader with excitation wavelength of 485 nm and emission wavelength of 520 nm. The experiments were repeated twice and each conditioned was performed in quadruplicate in each experiment.

PC-3 cells [8] = experiment: Fluorescence-based migration assay toward hrMCP-1; assay type: cell-based, human; conditions: for PC-3 cell migration, mean fluoresence±SD: 24 hours
Description: as §3

PC-3Luc cells [9] = experiment: Bioluminescent in vivo model of metastasis (Example 4, antibodies and/or docetaxel); parameters: species or system male SCID mice
Description: Bioluminescent imaging of PC-3Luc was preformed as previously described through The University of Michigan Small Animal Imaging Resource facility (MSAIR) (Loberg et al., 2006. Neoplasia. 8:578-586). Briefly, PC-3Luc cells were introduced into male SCID mice (5-6 wks of age) by intracardiac injections. Mice were serially imaged weekly for up to 12 weeks using a CCD IVIS system using a 50 mm lens (Xenogen Corp, Alameda, Calif.) and the results were analyzed using LIVING IMAGE software (Xenogen Corp.). Mice were separated into groups and treatment began at week 2 post-intracardiac injection and mice received 2 mg/Kg antibody twice weekly by intraperitoneal (i.p.) injection (for up to eight weeks) and/or 40 mg/Kg Taxotere i.p. injection once per week for three weeks. Mice were injected with luciferin (40 mg/mL) intraperitoneally and ventral images were acquired 15 min postinjection under 1.75% isofluorane/air anesthesia. Total tumor burden of each animal was calculated using regions of interest (ROIs) that encompassed the entire animal. Animals were sacrificed after week 6 image and individual organs were harvested and immediately placed in formalin.

[10] = test system: primary mouse calvaria osteoblasts; experiment: CCL2 ELISA of primary osteoblasts stimulated with PTHrP; assay type: cell-based; conditions: maximal response at 2 hours post-stimulation
Description: Primary mouse calvarial cells were isolated as previously described. Briefly, calvaria of newborn mice at day 4 were dissected, isolated, and subjected to sequential digestions in collagenase A (2 mg/ml) and 0.25% trypsin for 20, 40, and 90 minutes. Cells from the third digest were washed, counted, and plated in αMEM with 10% FBS containing 100 U/ml of penicillin and streptomycin. Primary cultures were used without passage. For differentiation, both MC-4 and primary cells were induced to differentiate and form mineralized matrix with the addition of ascorbic acid (50 μg/ml) and β-glycerophosphate (10 mM) with media replacement (every 2 days). In proliferation phase, MC-4 cells were serum staved for 24 h before addition of PTHrP or vehicle for indicated time. Otherwise, cells were treated with PTHrP or vehicle for indicated time without serum starvation.
A mouse CCL2 specific ELISA kit was purchased from BD Biosciences (San Diego, Calif.) to measure the protein level of CCL2 in cell culture media. Assays were performed as recommended by the manufacturer to determine levels of secreted CCL2 in MC-4 or primary cell culture media. Values were calculated from standard curves set up for each assay. The data are based on a triplicate experiments performed independently. Data are shown as mean +SEM in the figures.

[11] = test system: MC3T3-E1 subclone 4 (MC-4) OB cells; experiment: CCL2 ELISA of osteoblast cells stimulated with PTHrP; assay type: cell-based, mouse; conditions: PTHrP 10 nM; day 7 and day 14 after induced differentiation
Description: VCaP cells were obtained from a lumbar vertebral metastatic lesion through the Rapid Autopsy program at the University of Michigan (Korenchuk et al., 2001; 2: 163-168; Loberg et al., Urol. One. 2006; 24:161-168). Cells were cultured in Dulbecco's Modified Eagle Medium supplemented with 10% Fetal Bovine Serum and 1% antibiotic/antimicotic and incubated at 37° C. PC3 prostate cancer cells were obtained from the American Type Culture Collection (Manassas, Va.). Cells were cultured in RPMI-1640 with L-Glutamine (Cambrex Bioproducts) and supplemented with 10% Fetal Bovine Serum and 1% antibiotic/antimicotic. Cells were incubated at 37° C. and subcultured according to ATCC specifications. MC3T3-E1 subclone 4 cells (MC-4) with high osteoblast differentiation potential were maintained and passaged every 4-5 days as previously described. Briefly, cells were grown in AMEM (Gibco) containing 100 units/ml penicillin and streptomycin and 10% FBS. MC3T3 cells were plated at 40,000-50,000 cells/cm2, and differentiation was induced with the addition of ascorbic acid (50 μg/ml) for 7 days. The culture medium was changed at days 1, 3, 5, and 7. […]
A mouse CCL2 specific ELISA kit was purchased from BD Biosciences (San Diego, Calif.) to measure the protein level of CCL2 in cell culture media. […] Values were calculated from standard curves set up for each assay. […]

[12] = test system: HBME, HAEC and HDVMEC cells; experiment: CCL2 synthesis by endothelial cells stimulated with PTHrP; assay type: cell-based, human; conditions: PTHrP 10 nM
Description: To determine the role of CCL2 in the development of prostate cancer-bone metastasis the level of CCL2 was analyzed by ELISA. […]

[13] = in vivo; cited from earlier work

hrMCP-1: Human recombinant MCP-1 (CC chemokine ligand 2) from Chemicon International
cell viability (WST-1) as a measure of proliferation, mean ±SD (PC-3Luc cells [1]; CCL2 10 ng/mL): 136.2±7.81 | cell viability (WST-1) as a measure of proliferation, mean ±SD (PC-3Luc cells [1]; CCL2 100 ng/mL): 168.15±5.44 | Akt phosphorylation by immunoblot (VCaP cells [2]): induced Akt phosphorylation | GSK3α/β phosphorylation (PC-3 cells [3]): no effect | p70 S6 kinase phosphorylation (PC-3 cells [3]): induced p70 S6 kinase phosphorylation | Akt phosphorylation by immunoblot (PC-3 cells [3]; time dependent, maximal at 30 min, dose-dependent 0.1-100 ng/mL): induced Akt phosphorylation | proliferation in response to MCP-1 (VCaP cells [4]): enhanced proliferation | proliferation in response to MCP-1 (PC-3 cells [5]): enhanced proliferation | actin cytoskeleton: finger-like projections and lamellipodia (PC-3 cells [6]; MCP-1 100 ng/mL, 30 min, compared to control cells): increased formation | proliferation in response to MCP-1 (LNCaP cells): no effect | VCaP cell migration, mean fluoresence±SD (VCaP cells [7]; hrMCP-1 1 ng/mL): 130.6±2.145 | VCaP cell migration, mean fluoresence±SD (VCaP cells [7]; hrMCP-1 10 ng/mL): 176.1±9.051 | VCaP cell migration, mean fluoresence±SD (VCaP cells [7]; hrMCP-1 100 ng/mL): 296.5±2.681 | PC-3 cell migration, mean fluoresence±SD (PC-3 cells [8]; hrMCP-1 1 ng/mL): 83.53±2.981 | PC-3 cell migration, mean fluoresence±SD (PC-3 cells [8]; hrMCP-1 10 ng/mL): 142.2±2.678 | PC-3 cell migration, mean fluoresence±SD (PC-3 cells [8]; hrMCP-1 100 ng/mL): 248.1±0.761

O=C1Nc2ccccc2C2(CCN(CCc3ccc(C(F)(F)F)cc3)CC2)O1 [RS-102895]
effect on MCP-1 induced actin rearrangement and lamellipodial formation (PC-3 cells [6]; co-incubation with MCP-1 100 ng/mL, RS-102895 1 μM): did not prevent actin rearrangement and lamellipodial formation | effect on MCP-1 induced dose dependent migration of VCaP cells (VCaP cells [7]; MCP-1 1-100 ng/mL): attenuated | effect on MCP-1 induced dose dependent migration of PC-3 cells (PC-3 cells [8]; MCP-1 1-100 ng/mL): attenuated

CC(=O)O[C@@]12CO[C@@H]1C[C@H](O)[C@@]1(C)C(=O)[C@H](O)C3=C(C)[C@@H](OC(=O)[C@H](O)[C@@H](NC(=O)OC(C)(C)C)c4ccccc4)C[C@@](O)([C@@H](OC(=O)c4ccccc4)[C@H]21)C3(C)C [docetaxel, (2R,3S)-N-carboxy-3-phenylisoserine, N-tert-butyl ester, 13-ester with 5b-20-epoxy-12a,4,7b,10b,13a-hexahydroxytax-11-en-9-one 4-acetate 2-benzoate, trihydrate]
animals of group counted at Wk 6 (tumor regression, Table 2) (PC-3Luc cells [9]; Wk 6 = First week after cessation of Taxotere): 2 of 9 | animals of group counted at Wk 9 (tumor regression, Table 2) (PC-3Luc cells [9]; Wk 9 = First week after cessation of Antibodies): 1 of 9 | total tumor burden at Day 35 (PC-3Luc cells [9]; antibodies 2 mg/Kg i.p. twice weekly, docetaxel 40 mg/Kg i.p.): 3.19 % of PBS-treated animals | tumor burden during and after therapy (docetaxel, combination, antibody maintenance) (PC-3Luc cells [9]; docetaxel 40 mg/Kg i.p. qw for 3 weeks, antibodies 2 mg/Kg i.p. twice weekly until week 8): decrease in tumor burden while receiving therapy

PTHrP: Human Parathyroid hormone related protein (PTHrP)-(1-34) from Bachem
CCL2 expression [10]: increased CCL2 expression | CCL2 expression [11]: rapidly increased within 2 hours | synthesis of CCL2 [12]: increased their respective synthesis of CCL2

VEGF TRAPR1R2: VEGF TRAP Fc fusion protein (Holash et al.)
AUC [13]: 36.28 µg·days/mL | Cmax [13]: 16000 ng/mL
